Reference: ChEMBL document CHEMBL5726725, “Inhibitors of metallo-beta-lactamase (MBL) comprising a zinc chelating moiety” (2019)

Legend:
[1] = (§1) MBL Inhibitory Activity in Constructed E. coli Cells Expressing MBLs: a. Transfer 50 μl LB with 0.8 mM IPTG (0.4 mM final concentration in assay) to each wellb. Add 1 μl inhibitor/positive control (500/1000 μM final concentration in assay) to selected wellsc. Add 50 μl overnight culture (=1) to each welld. Incubate in plate reader at 37° C. for 20 min with shakinge. Add 5 μl nitrocefin (3.2 mM) to selected wells with a multichannel pipettef. Incubate the plate in the plate reader for 3 hours, measuring nitrocefin hydrolysis at A482 every minute, with shaking in-betweeng. Measure endpoint at A600 to see how inhibitor alone effects bacterial growthh. Centrifuge the plate at 2800 rpm for 10 min, and transfer 50 μl to clean wellsi. Measure A482 endpoint.
[2] = molecular target: Metallo-beta-lactamase type 2 (Bacteria, UniProt C7C422); test: as §1
Chain of Metallo-beta-lactamase type 2 (C7C422 whole entry): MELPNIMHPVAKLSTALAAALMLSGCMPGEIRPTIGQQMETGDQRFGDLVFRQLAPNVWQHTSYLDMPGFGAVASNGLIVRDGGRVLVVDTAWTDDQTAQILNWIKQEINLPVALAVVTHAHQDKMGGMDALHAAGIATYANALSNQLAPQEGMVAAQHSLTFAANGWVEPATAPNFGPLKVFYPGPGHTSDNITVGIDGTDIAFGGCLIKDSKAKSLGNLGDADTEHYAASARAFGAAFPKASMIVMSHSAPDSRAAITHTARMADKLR

For `COc1ccc(Cn2cc(CN(Cc3ccccn3)Cc3ccccn3)nn2)cc1`, the IC50 [1] was 2.26 µM and the IC50 [2] was 0.38 µM.
